What was measured:
[1] = Solubility of auxiliary solvent in water at 25° C.; conditions: for Solubility of auxiliary solvent in water at 25° C.: in 100 g of water at 25° C.; for Auxiliary solvent Water solubility: Table 1
[2] = Water solubility of high-boiling point organic solvent; format: physicochemical; conditions: 25° C.
[3] = Specific gravity of high-boiling point organic solvent; format: physicochemical

Solubility of auxiliary solvent in water at 25° C. [1] [g]	Auxiliary solvent Water solubility [1] [g]	Compound	High-boiling point organic solvent Water Solubility [2] [g]	High-boiling point organic solvent Specific Gravity [3]
<1	–	CCC(CC)COC(C)=O [AS-3, 2-ethylbutyl acetate]	–	–
–	–	CCCCCOP(=O)(OCCCCC)OCCCCC [SPX-4, [(n)C5H11O]3—P═O]	4.5	0.94
20	–	2-ethylene acetate [AS-4]	–	–
8	8	CCOC(C)=O [AS-1, ethyl acetate]	–	–
2	2	CCCOC(C)=O [AS-2, propyl acetate]	–	–
–	–	(ClCH2CHCHO)3—P═O [SPX-2]	0.9	1.51
2	–	CCOC(=O)CC [AS-7, ethyl propionate]	–	–
–	–	O=P(OCCCl)(OCCCl)OCCCl [SPX-3, (ClCH2CH2O)3—P═O]	4.64	1.41

Compound	Solubility of auxiliary solvent in water at 25° C. [1] [g]	Auxiliary solvent Water solubility [1] [g]	High-boiling point organic solvent Water Solubility [2] [g]	High-boiling point organic solvent Specific Gravity [3]
CCCCOCCOCCOC(C)=O [AS-10, 2-(2-n-butoxyethoxy)ethyl acetate]	2	–	–	–
O=C1CCCCC1 [AS-11, cyclohexanone]	15	–	–	–
CCOCCOC(C)=O [AS-5, 2-ethoxyethyl acetate]	25	–	–	–
CCCCOC(C)=O [AS-6, butyl acetate]	2	–	–	–
